Data from patent US10077241B2 (Janssen Pharmaceutica NV, priority 2014, dated 2018).
Where a name gives a salt, the structure may show the parent alone.

Experiments:
TGR5 (STC1 cell line) = target: T1, TGR5 (STC1 cell line) (Mus musculus, UniProt Q80SS6); experiment: STC1 cAMP Agonist EC50 Determination
T1 sequence (Q80SS6 1-329): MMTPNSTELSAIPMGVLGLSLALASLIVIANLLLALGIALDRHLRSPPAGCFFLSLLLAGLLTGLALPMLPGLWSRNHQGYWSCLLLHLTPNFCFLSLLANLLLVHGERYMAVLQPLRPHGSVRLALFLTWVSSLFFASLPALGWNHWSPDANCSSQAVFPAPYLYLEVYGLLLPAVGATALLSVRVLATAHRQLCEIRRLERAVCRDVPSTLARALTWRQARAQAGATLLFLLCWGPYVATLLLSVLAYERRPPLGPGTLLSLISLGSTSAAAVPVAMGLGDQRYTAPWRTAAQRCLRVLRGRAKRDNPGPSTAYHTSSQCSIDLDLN

[1] = target: T2, TGR5 (NCI-H716 cell line) (Homo sapiens, UniProt Q8TDU6); experiment: NCI-H716 cAMP Agonist EC50 Determination
T2 sequence (Q8TDU6 1-330): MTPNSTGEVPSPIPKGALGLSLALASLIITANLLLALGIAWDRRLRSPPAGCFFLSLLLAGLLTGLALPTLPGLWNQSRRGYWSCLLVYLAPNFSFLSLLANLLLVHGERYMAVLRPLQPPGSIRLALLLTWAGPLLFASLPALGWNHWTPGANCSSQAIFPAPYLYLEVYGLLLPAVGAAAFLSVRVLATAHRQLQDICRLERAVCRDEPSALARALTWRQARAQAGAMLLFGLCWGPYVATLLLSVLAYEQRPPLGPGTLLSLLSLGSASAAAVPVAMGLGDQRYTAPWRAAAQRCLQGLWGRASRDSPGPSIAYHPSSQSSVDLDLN
Method: Cells were cultured in suspension using RPM containing: 10% HI FBS, and 1× Penn/Strep and were cryostored (1E7 cells/vial in 5% DMSO).
A Normalized signal (NS) is generated by the Envision for each well ((Read 1/Read 2)×10,000).
The data from the Envision were imported to an Excel worksheet. nM cAMP is calculated for each well from the cAMP standard curves located on each plate by first calculating the slope and deriving the intercept (b).
[formula] [formula] [formula] EC50 values were determined from a 4-point fit (Hill equation) of a single 11-point compound dosing.

EC50 (TGR5 (STC1 cell line)) [µM] | EC50 [1] [µM] | SMILES
0.35 | > 50 | COc1cc(C2CCCc3nc(SCc4c(F)cc(CCC(N)=O)cc4F)n(-c4ccc(F)cc4)c32)ccc1Cl (stereo not drawn) [Example 45, 3-(4-((7-(4-chloro-3-methoxyphenyl)-1-(4-fluorophenyl)-4,5,6,7-tetrahydro-1H-benzo[d]imidazol-2-ylthio)methyl)-3,5-difluorophenyl)propanamide trifluoroacetic acid]
0.67 | > 50 | COc1cc(C2CCCc3nc(SCc4c(F)cc(CCCN/C(N)=N/C#N)cc4F)n(-c4ccc(F)cc4)c32)ccc1Cl (stereo not drawn) [Example 43, (E)-1-(3-(4-((7-(4-chloro-3-methoxyphenyl)-1-(4-fluorophenyl)-4,5,6,7-tetrahydro-1H-benzo[d]imidazol-2-ylthio)methyl)-3,5-difluorophenyl)propyl)-2-cyanoguanidine hydrochloride]
1.25 | > 50 | COc1cc(C2CCCc3nc(SCc4c(F)cc(CC5SC(=O)NC5=O)cc4F)n(-c4ccc(F)cc4)c32)ccc1Cl (stereo not drawn) [Example 38, 5-(4-((7-(4-chloro-3-methoxyphenyl)-1-(4-fluorophenyl)-4,5,6,7-tetrahydro-1H-benzo[d]imidazol-2-ylthio)methyl)-3,5-difluorobenzyl)thiazolidine-2,4-dione trifluoroacetic acid]
19.7 | > 50 | COc1cc(C2CCCc3nc(SCc4c(F)cc(C(=O)O)cc4F)n(-c4ccc(F)cc4)c32)ccc1Cl (stereo not drawn) [Example 12, 4-((7-(4-chloro-3-methoxyphenyl)-1-(4-fluorophenyl)-4,5,6,7-tetrahydro-1H-benzo[d]imidazol-2-ylthio)methyl)-3,5-difluorobenzoic acid trifluoroacetic acid]

More lines, now with the values behind:

SMILES | EC50 (TGR5 (STC1 cell line)) [µM] | EC50 [1] [µM]
COc1ccc(C2(C)CCCc3nc(SCc4c(F)cc(C#N)cc4F)n(-c4ccc(F)cc4)c32)cc1OC (stereo not drawn) [Example 102, 4-(((7-(3,4-dimethoxyphenyl)-1-(4-fluorophenyl)-7-methyl-4,5,6,7-tetrahydro-1H-benzo[d]imidazol-2-yl)thio)methyl)-3,5-difluorobenzonitrile] | 0.03 | 1.37
COc1cc(C2(C)CCCc3nc(SCc4c(F)cc(OCCN(C)C)cc4F)n(-c4ccc(F)cc4)c32)ccc1Cl (stereo not drawn) [Example 80, 2-(4-((7-(4-chloro-3-methoxyphenyl)-1-(4-fluorophenyl)-4,5,6,7-tetrahydro-7-methyl-1H-benzo[d]imidazol-2-ylthio)methyl)-3,5-difluorophenoxy)-N,N-dimethylethanamine] | 2.94 | 19.2
COc1cc(C2CCCc3nc(SCc4c(F)ccc(OCCOCCN(C)C)c4F)n(-c4ccc(F)cc4)c32)ccc1Cl (stereo not drawn) [Example 35, (2-[2-[3-([[7-(4-chloro-3-methoxyphenyl)-1-(4-fluorophenyl)-4,5,6,7-tetrahydro-1H-1,3-benzodiazol-2-yl]sulfanyl]methyl)-2,4-difluorophenoxy]ethoxy]ethyl)dimethylamine hydrochloride] | 3.15 | 9.3
COc1cc(C2(C)CCCc3nc(SCc4c(F)cc(C(=O)NCCOCCOCCOCCO)cc4F)n(-c4ccc(F)cc4)c32)ccc1F (stereo not drawn) [Example 123, 3,5-difluoro-4-(((7-(4-fluoro-3-methoxyphenyl)-1-(4-fluorophenyl)-7-methyl-4,5,6,7-tetrahydro-1H-benzo[d]imidazol-2-yl)thio)methyl)-N-(2-(2-(2-(2-hydroxyethoxy)ethoxy)ethoxy)ethyl) benzamide] | 0.05 | 17
COc1cc(C2(C)CCCc3nc(SCc4c(F)ccc(OCCN(C)C)c4F)n(-c4ccc(F)cc4)c32)ccc1Cl (stereo not drawn) [Example 96, 2-(3-((7-(4-chloro-3-methoxyphenyl)-1-(4-fluorophenyl)-7-methyl-4,5,6,7-tetrahydro-1H-benzo[d]imidazol-2-ylthio)methyl)-2,4-difluorophenoxy)-N,N-dimethylethanamine trifluoroacetic acid] | 13.4 | > 50
